Reference: US20220387375A1, “TRPV1 ACTIVATION-MODULATING COMPLEX MIXTURES OF CANNABINOIDS AND/OR TERPENES” (GBS Global Biopharma, Inc., priority 2018, published 2022)

Experiments:
[1] = biological target: T1, TRPV2 (Homo sapiens, UniProt Q9Y5S1); assay: Bulk calcium assay (Fluo-4) in HEK cells overexpressing TRPV2; type: cell-based
T1 construct: host or cells: HEK TRex293
T1 sequence (Q9Y5S1 1-764): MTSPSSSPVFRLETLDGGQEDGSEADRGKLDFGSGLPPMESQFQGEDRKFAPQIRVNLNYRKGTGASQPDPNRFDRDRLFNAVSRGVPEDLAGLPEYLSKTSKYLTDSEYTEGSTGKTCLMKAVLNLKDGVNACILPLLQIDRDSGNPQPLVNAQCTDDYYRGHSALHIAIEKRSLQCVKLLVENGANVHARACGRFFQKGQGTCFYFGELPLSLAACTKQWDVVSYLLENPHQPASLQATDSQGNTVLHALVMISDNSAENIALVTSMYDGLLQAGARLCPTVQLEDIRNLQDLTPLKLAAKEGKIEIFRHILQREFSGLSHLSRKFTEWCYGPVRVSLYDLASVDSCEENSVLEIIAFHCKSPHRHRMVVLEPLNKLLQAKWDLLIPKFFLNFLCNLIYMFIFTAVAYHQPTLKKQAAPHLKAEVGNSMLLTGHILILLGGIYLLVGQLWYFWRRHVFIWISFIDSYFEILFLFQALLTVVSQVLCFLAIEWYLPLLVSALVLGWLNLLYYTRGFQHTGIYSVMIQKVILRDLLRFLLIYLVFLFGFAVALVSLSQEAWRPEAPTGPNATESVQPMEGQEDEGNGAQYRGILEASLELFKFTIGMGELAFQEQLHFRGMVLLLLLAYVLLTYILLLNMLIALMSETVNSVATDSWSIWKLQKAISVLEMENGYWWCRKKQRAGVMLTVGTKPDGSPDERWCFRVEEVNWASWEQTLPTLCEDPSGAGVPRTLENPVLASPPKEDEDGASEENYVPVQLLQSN
Protocol: HEK TRexTRPV1 were cultured in DMEM, 10% Fetal Bovine Serum, 2 mM Lglutamine, 10 μg/ml Blasticidin (Calbiochem, San Diego Calif.), 400 μg/ml Zeocin (InvivoGen, San Diego Calif.), where indicated transgene expression was induced using 1 μg/ml Tetracycline for 16-24 hrs. Unless otherwise indicated, basal expression of TRPV1 without induction was sufficient for these studies, and comparisons were made to untransfected HEK where needed. HEKTRex293 over-expressing human TRPV2, human TRPA1 and human TRPM8 were obtained from SB Drug Discovery (Glasgow, Scotland) and cultured as described above. The cannabinoids and terpenes were assayed in HEK cells that have been transfected with the TRPV1 ion channel protein. These cells are called HEK293-V1 cells.
Cells were washed and incubated with 0.2 micromolar Fluo-4 for 30 minutes at 37° C. in a standard modified Ringer's solution of the following composition (in mM): NaCl 145, KCl 2.8, CsCl 10, CaCl2 10, MgCl2 2, glucose 10, Hepes·NaOH 10, pH 7.4, 330 mOsm. Cells were transferred to 96-well plates at 50,000 cells/well and stimulated as indicated. Calcium signals were acquired using a Flexstation 3 (Molecular Devices, Sunnydale, USA). Data was analyzed using SoftMax® Pro 5 (Molecular Devices). Where indicated, nomically calcium-free external conditions were achieved by the preparation of 0 mM CaCl2 Ringer solution containing 1 mM EGTA.
Calcium responses mediated by TRPA1, TRPM8, TRPV2, and TRPV1 were tested by calcium assay in the cell culture system. Cells were washed and incubated with 0.2 μM fluo-4 acetoxymethyl ester (“Fluo-4”) for 30 minutes at 37° C. in a standard modified Ringer's solution of the following composition (in mM): NaCl 145, KCl 2.8, CsCl 10, CaCl2 10, MgCl2 2, glucose 10, Hepes·NaOH 10, pH 7.4, 330 mOsm. Cells were transferred to 96-well plates at 50,000 cells/well and stimulated with 10 μM myrcene diluted in DMSO. Vehicle (DMSO) was used as a negative control. Vehicle traces were subtracted from the myrcene traces for each cell line.
The potential for different cannabinoids to target specific TRP channels, or to co-target more than one channel type, are of potential therapeutic options for the treatment and management of pain. Comparison of the impacts of a variety of cannabinoid on overexpression systems for TRPV2, TRPM8, and TRPA1 were performed in a side-by-side fashion, under bulk calcium assays where the measurements with each trace representing averaged triplicates of 100,000 cells per sample. As shown in FIGS. 41-43 and summarized in Table 3, there are clear differences in responsiveness between cannabinoids at a single channel type than between channel types to a given cannabinoid.

[2] = tested on: WT HEK293; assay: Bulk calcium assay in untransfected WT HEK293; type: cell-based; conditions: 10 μM, 1 mM external Ca2+

Structure (SMILES)	mean maximal Ca^2+ signal RFU achieved 0-180 s (SD), TRPV1 [1]	calcium response of WT HEK293 [2]
C=C(C)[C@@H]1CCC(C)=C[C@H]1c1c(O)cc(CCCCC)cc1O [CBD, Cannabidiol]	12.53 (0.28) RFU	–
CCCCCc1cc(O)c2c(c1)OC(C)(C)c1ccc(C)cc1-2 [CBN, Cannabinol]	4.03 (0.64) RFU	–
CCCCCc1cc(O)c(C/C=C(\C)CCC=C(C)C)c(O)c1 [CBG, Cannabigerol]	2.19 (0.62) RFU	–
C=C(C)[C@@H]1CCC(C)=C[C@H]1c1c(O)cc(CCC)cc1O [CBDV, Cannabidivarin]	13.07 (0.03) RFU	responding slightly
